From patent US20230021669A1, “TRICYCLIC COMPOUND, AND PREPARATION METHOD THEREFOR AND MEDICAL USE THEREOF” (The National Institutes of Pharmaceutical R&D Co., Ltd., priority 2019, published 2023) come the findings set out here.

A short description of experiment [1]: Determination of aldehyde capture rate (nonenal as model aldehyde, HPLC quantification). Particulars: for Capture rate (slope of the capture curve per unit time): higher absolute value of the slope = higher capture rate; for Aldehyde consumption (100%): nonenal 0.025 mM, compound 0.05 mM, room temperature. The method, then:
In the aldehyde capture test disclosed in the present invention, the stable lipid metabolite, nonenal, was used as the model aldehyde to react with the compound of the Example. The specific protocol was as follows.
0.05 mM of the compounds of the Examples of the present invention were precisely weighed respectively and dissolved in 1.2 mL of a mixed solution (v/v=1:1) of triolein (Aladdin, G105172-5g) and linoleic acid (Aladdin, L100442-25g), respectively. 2.5 mL of PBS (Solarbio) solution containing 20% Captisol® (Aladdin, C125030-25g) was added, and the solution was stirred at room temperature overnight. After the example compound was completely dissolved, 0.025 mM nonenal (Sigma, 255653-5G) was added, and the solution was stirred vigorously at room temperature. 200 μL of the sample was added to 800 μL of acetonitrile (Fisher, A995) at 0, 45, 90, 180, 225 and 465 minutes, respectively. The solution was mixed vigorously by vortex for 2 minutes, and centrifuged at a low speed of 1000 r/min for 3 minutes. The supernatant was transferred to an injection vial. The nonenal in the reaction mixture was analyzed quantitatively by high performance liquid chromatography. The adduct resulted from the example compound of the present invention and nonenal was analyzed qualitatively by high performance liquid chromatography-mass spectrometry.
In the developed detection method, the retention time of the model aldehyde nonenal was 2.42 minutes.

Experiment [2] relates to C48/80-induced allergic conjunctivitis (Wistar rats). Nature of the experiment: Therapeutic effect in C48/80-induced allergic conjunctivitis animal model. It is filed as in vivo, rat. Particulars: female Wistar rats, C48/80 on cornea; 10 μL per eye 10 minutes after stimulation; examined 20 minutes after administration. From the text:
C48/80 is a polymer formed by the condensation of N-methyl-p-methoxyphenethylamine with formaldehyde, which acts directly on G protein and induces mast cell degranulation. After degranulation, the mast cell releases active substances such as histamine and kinin, which can cause acute type I allergic reactions such as telangiectasia and enhanced permeability. It can cause allergic conjunctivitis if applied topically to the ocular surface.
Female Wistar rats were used as the research subjects. Wistar rats (Vital River) were randomly divided into groups (5 animals per group, a total of 10 eyes). The groups are as follows: normal control group, model control group, positive drug group, and example administration group. The inflammation model was established in these groups except for the normal control group. Emedastine Difumarate Eye Drops (Emadine®, Alcon, H20181192) was used as the positive drug. Model establishment, administration and evaluation processes are as follows. […]
After 10 minutes of stimulation, different drug treatments were carried out according to the group settings. […] The clinical score was evaluated individually on the eyes of each animal according to the McDonald-Shadduck scoring system (GB/T 28538-2012).

The subject of experiment [3] is noninfectious uveitis animal model (lewis rats). As to the kind of experiment: Therapeutic effect in lipopolysaccharide-induced noninfectious uveitis animal model. It is filed as in vivo, rat. The method, then:
Female lewis rats were used as the research subjects. Lewis rats (Vital River) were randomly divided into groups (4 animals per group, a total of 8 eyes). The groups are as follows: normal control group, model control group, and example administration group. The inflammation model was established in these groups except for the normal control group.
(2) Formulation of drug solution: 10 mg of the compound of Example 4 of the present invention was weighed and dissolved in 1 mL of the vehicle stock solution, and the resulting solution was made up to 2 mL with water for injection. The content of each substance is as follows: Na2HPO4.12H2O 0.83%, NaH2PO4.2H2O 0.017%, ρ-cyclodextrin 9.5%, PEG-400 5.0%, active compound 0.5%.
The animal model was a noninfectious uveitis animal model established by intraperitoneal injection of lipopolysaccharide (derived from Escherichia coli, 055:B5, Sigma, L2880-100MG, injection dose: 2 mg/kg). At the same time of modeling, drug administration was carried out according to the above grouping situation. The normal control group was administered with normal saline, the model control group was administered with blank vehicle, and the example administration group was administered with the eye drops formulated above. The drug was administered by eye instillation to both eyes of each animal, and the eye instillation dose was 20 μL/eye. After the completion of eye instillation, the eyelids were closed for 20 seconds to prevent the loss of the drug. The administration was repeated at 3, 6 and 23 hours after modeling. […] The ocular inflammation of the animals in each group was examined with a slit lamp microscope (Jiangxi Jiangfeng, LYL-S), and evaluated according to the McDonald-Shadduck scoring system (GB/T 28538-2012).
The animals were sacrificed, and the bilateral eyeballs were enucleated. […] Quantitative analysis of total protein in aqueous humor was performed on the supernatant by a BCA protein quantification kit (Beyotime, P0010).

Consider `CC(C)(O)c1nc2cc3c(cc2cc1N)OCO3` [Example 1, 2-(7-amino-[1,3]dioxolo[4,5-g]quinolin-6-yl)propan-2-ol], for which, in experiment [1] (225 minutes), the “Capture rate (slope of the capture curve per unit time)” value is −0.05 and the “Aldehyde consumption (100%)” value is given as 10.73%. Also, in experiment [1] (465 minutes), the “Capture rate (slope of the capture curve per unit time)” value was −0.04 and the “Aldehyde consumption (100%)” value is reported as 18.43%.

Regarding `Cc1nc2cc3nc(C(C)(C)O)c(N)cc3cc2o1` [Example 2, 2-(7-amino-2-methyloxazolo[5,4-g]quinolin-6-yl)propan-2-ol], the “Capture rate (slope of the capture curve per unit time)” value in experiment [1] (225 minutes) was −0.06; in experiment [1] (465 minutes), −0.03. The “Aldehyde consumption (100%)” value was found to be 11.99% in experiment [1] (225 minutes) and 12.11% in experiment [1] (465 minutes).

Take `CC(C)(O)c1nc2cc3nc(N4CCOCC4)oc3cc2cc1N` [Example 3, 2-(7-amino-2-morpholinooxazolo[5,4-g]quinolin-6-yl)propan-2-ol]: the “Capture rate (slope of the capture curve per unit time)” value was −0.17 in experiment [1] (225 minutes) and −0.10 in experiment [1] (465 minutes). In addition, the “Aldehyde consumption (100%)” value is 35.38% in experiment [1] (225 minutes) and 43.67% in experiment [1] (465 minutes).

For `CC(C)(O)c1cc2cc3c(cc2cc1N)OCO3` [Example 4, 2-(7-aminonaphtho[2,3-d][1,3]dioxol-6-yl)propan-2-ol], in experiment [1] (225 minutes), the “Capture rate (slope of the capture curve per unit time)” value is −0.25 and the “Aldehyde consumption (100%)” value is 52.65%. Besides, in experiment [1] (465 minutes), the “Capture rate (slope of the capture curve per unit time)” value was −0.14 and the “Aldehyde consumption (100%)” value was determined as 66.62%. In addition, the “Therapeutic effect on allergic conjunctivitis (McDonald-Shadduck clinical score, FIG. 2)” value in experiment [2] is given as “good therapeutic effect”. In experiment [3] (female lewis rats, LPS 2 mg/kg i.p., 0.5% eye drops 20 μL/eye at 0, 3, 6, 23 h, 24 hours after modeling, BCA, mean ± standard deviation), the “Protein concentration in aqueous humor” value turned out to be 840.6 ± 449.7 µg/mL. Moreover, the “Ocular score (McDonald-Shadduck scoring system)” value in experiment [3] (female lewis rats, LPS 2 mg/kg i.p., 0.5% eye drops 20 μL/eye at 0, 3, 6, 23 h, 24 hours after modeling, mean ± standard deviation) is listed as 8.4 ± 2.8. Moreover, in experiment [3] (lewis rats, LPS-induced uveitis, eye drops), the “Therapeutic effect in the ocular inflammation animal model (score and aqueous humor protein, in words)” value was “showing a therapeutic effect”.

Take `Cn1cnc2cc3cc(N)c(C(C)(C)O)nc3cc21` [Example 5, 2-(7-amino-3-methyl-3H-imidazo[4,5-g]quinolin-6-yl)propan-2-ol]: in experiment [1] (225 minutes), the “Capture rate (slope of the capture curve per unit time)” value is recorded as −0.08 and the “Aldehyde consumption (100%)” value is reported as 20.02%. Besides, in experiment [1] (465 minutes), the “Capture rate (slope of the capture curve per unit time)” value is listed as −0.08 and the “Aldehyde consumption (100%)” value is recorded as 36.01%.

With `CC(C)(O)c1cc2cc3c(cc2cc1N)OCCO3` [Example 6, 2-(8-amino-2,3-dihydronaphtho[2,3-b][1,4]dioxin-7-yl)propan-2-ol], in experiment [1] (225 minutes), the “Capture rate (slope of the capture curve per unit time)” value is recorded as −0.07 and the “Aldehyde consumption (100%)” value amounted to 16.48%. For the same compound, in experiment [1] (465 minutes), the “Capture rate (slope of the capture curve per unit time)” value is reported as −0.05 and the “Aldehyde consumption (100%)” value is given as 22.01%.

For `CC(C)(O)c1nc2cc3oc(N4CCOCC4)nc3cc2cc1N` [Example 7, 2-(7-amino-2-morpholinooxazolo[4,5-g]quinolin-6-yl)propan-2-ol], the figures for the “Capture rate (slope of the capture curve per unit time)” value in experiment [1] (225 minutes) and in experiment [1] (465 minutes) were −0.03 and −0.01, respectively. Moreover, the “Aldehyde consumption (100%)” value turned out to be 7.12% in experiment [1] (225 minutes) and 8.34% in experiment [1] (465 minutes).

On to `CC(C)(O)c1cc2cc3c(cc2cc1N)OCCOCCOCCO3` [Example 8, 2-(14-amino-2,3,5,6,8,9-hexahydronaphtho[2,3-b][1,4,7,10]tetraoxacyclododecin-13-yl) propan-2-ol], for which the “Capture rate (slope of the capture curve per unit time)” value in experiment [1] (225 minutes) is −0.07; in experiment [1] (465 minutes), −0.04. Also, the “Aldehyde consumption (100%)” value in experiment [1] (225 minutes) came out at 19.78%; in experiment [1] (465 minutes), 19.82%.

In the case of `Nc1cc2cc3c(cc2cc1C1(O)CC1)OCO3` [Example 9, 1-(7-aminonaphtho[2,3-d][1,3]dioxol-6-yl)cyclopropan-1-ol], in experiment [1] (225 minutes), the “Capture rate (slope of the capture curve per unit time)” value is on record as −0.06 and the “Aldehyde consumption (100%)” value came to 15.43%. For the same compound, in experiment [1] (465 minutes), the “Capture rate (slope of the capture curve per unit time)” value is given as −0.03 and the “Aldehyde consumption (100%)” value came out at 16.60%.
